From patent publication US20250144067A1, “PERSONALIZED STARVATION THERAPY FOR CANCER” (Faeth Therapeutics, Inc., priority 2021, published 2025)
Counter-ions that a name gives are not always drawn. Like-named read-outs stand apart in the source and are kept apart here. Numbered stars: 1 amine (or outer) side, 2 acyl side, 3 side chain; on linkers, the order of the positions; unused ones are H or OH. Bridge positions count the residues as written; N and C are the ends. Square brackets hold non-standard residues; d marks the D form. Peptide text beside a SMILES is read from it. * marks the point of attachment. pTerphenylCO(4''-OnC5H11) = CCCCCOc1ccc(-c2ccc(-c3ccc(C(=O)*)cc3)cc2)cc1; Orn(4R-OH,5R-OH) = O=C([C@H](C[C@@H](O)[C@@H](O)N[*:3])N[*:1])[*:2]; hTyr(3S-OH,4S-OH) = N[C@H](C(=O)O)[C@H](O)[C@@H](O)c1ccc(O)cc1; Pro(3S-OH,4S-Me) = C[C@H]1CN[C@H](C(=O)O)[C@H]1O; Hyp = O=C(O)[C@@H]1C[C@@H](O)CN1

Assays:
[1] = test system: NCI-H292 lung cancer cells; experiment: FDA drug screening, complete media vs cholesterol-free media without statin (TABLE 1); type: cell-based, human
[2] = test system: NCI-H292 lung cancer cells; experiment: FDA drug screening, complete media vs cholesterol-free media with simvastatin (TABLE 2); type: cell-based, human
[3] = Complete minus Cholesterol-free, >0 enhanced anti-cancer activity, about 0 neutral, <0 antagonist
[4] = NCI-H292 cells, cholesterol-free media without statin
[5] = NCI-H292 cells, FDA drug library screen, cholesterol-free media with simvastatin 0.04 μM
[6] = NCI-H292 cells, FDA drug library screen, complete media
[7] = complete media vs cholesterol-free media + simvastatin (0.04 μM), >0 enhanced anti-cancer activity, about 0 neutral, <0 antagonist
[8] = Complete minus Cholesterol-free, […]
[9] = Complete minus Cholesterol-free, greater than 0 enhanced anti-cancer activity, about 0 neutral, below 0 antagonist
[10] = NCI-H292 cells, FDA drug library screen, cholesterol-free media without statin
[11] = NCI-H292 cells, cholesterol-free media with simvastatin 0.04 μM, cell growth value in FDA drug screen
[12] = NCI-H292 cells, complete media, cell growth value in FDA drug screen
[13] = complete media minus cholesterol-free media + simvastatin, >0 enhanced anti-cancer activity, about 0 neutral, <0 antagonist
[14] = NCI-H292 cells in cholesterol-free media without statin
[15] = NCI-H292 cells in complete media
[16] = NCI-H292 cells, drug in cholesterol-free media with simvastatin 0.04 μM
[17] = NCI-H292 cells, drug in complete media
[18] = NCI-H292 cells, cholesterol-free media with simvastatin 0.04 μM, FDA drug library screen (TABLE 2)
[19] = NCI-H292 cells, complete media, FDA drug library screen (TABLE 2)
[20] = complete media minus cholesterol-free media + simvastatin (0.04 μM), >0 enhanced anti-cancer activity, about 0 neutral, <0 antagonist

How did the Difference [1, 3] turn out when `O=C(O)CCn1c2c(c3ccccc31)C[C@H](NS(=O)(=O)c1ccc(F)cc1)CC2` [Ramatroban] was run?
The Difference was −0.25.

What about the Cholesterol-free [1, 4] of the same compound?
Its Cholesterol-free is 0.905.

What about the Complete ([1]; NCI-H292 cells, complete media) of the same compound?
Its Complete is 0.6524.

What about the “Cholesterol-free media + simvastatin (0.04 μM)” value [2, 5] of the same compound?
The value was 1.061.

What about the “Complete Media” value [2, 6] of the same compound?
The value was 0.9101.

What about the Difference [2, 7] of the same compound?
The Difference was −0.15.

Which Difference [1, 8] does the source give for `CCCCCOc1ccc(-c2ccc(-c3ccc(C(=O)N[C@H]4C[C@@H](O)[C@@H](O)NC(=O)[C@@H]5[C@@H](O)[C@@H](C)CN5C(=O)[C@H]([C@@H](C)O)NC(=O)[C@H]([C@H](O)[C@@H](O)c5ccc(O)cc5)NC(=O)[C@@H]5C[C@@H](O)CN5C(=O)[C@H]([C@@H](C)O)NC4=O)cc3)cc2)cc1` [Anidulafungin] ({pTerphenylCO(4''-OnC5H11)}-[Orn(4R-OH,5R-OH)]T[Hyp][hTyr(3S-OH,4S-OH)]T[Pro(3S-OH,4S-Me)]; lactam 1-C) here?
The Difference was −0.23.

And the Cholesterol-free [1, 4]?
Its Cholesterol-free is 1.481.

What about the Complete ([1]; NCI-H292 cells, complete media) of the same compound?
Its Complete is 1.247.

And the “Cholesterol-free media + simvastatin (0.04 μM)” value [2, 5]?
The value was 1.251.

And the Difference ([2]; complete media minus cholesterol-free media + simvastatin (0.04 μM), […])?
Its Difference is −1.03.

`CCOC(=O)c1c(N)sc2c1CCN(Cc1ccccc1)C2` [Tinoridine hydrochloride] was tested. Which Difference [1, 9] did it give?
Its Difference is −0.11.

What about the Cholesterol-free [1, 10] of the same compound?
The Cholesterol-free was 1.153.

What about the Complete [1, 6] of the same compound?
The Complete was 1.039.

What about the “Cholesterol-free media + simvastatin (0.04 μM)” value [2, 11] of the same compound?
Its value is 1.034.

And the “Complete Media” value [2, 12]?
The value was 1.059.

What about the Difference [2, 13] of the same compound?
Its Difference is 0.03.

For `O.O.O=C([O-])CC(O)(CC(=O)[O-])C(=O)[O-].[Na+].[Na+].[Na+]` [Sodium citrate (dihydrate)], which Cholesterol-free [1] is on record?
Its Cholesterol-free is 0.7144.

What about the Complete [1] of the same compound?
Its Complete is 0.9967.

What about the Difference [1] of the same compound?
Its Difference is 0.28.

And the “Cholesterol-free media + simvastatin (0.04 μM)” value [2]?
The value was 1.04.

What about the “Complete Media” value [2] of the same compound?
The value was 1.108.

What about the Difference [2] of the same compound?
The Difference was 0.07.

Which Difference ([1]; Complete minus Cholesterol-free, greater than 0 enhanced anti-cancer activity, about 0 neutral, below 0 antagonists) does the source give for `C=C1CC[C@H](O)C/C1=C/C=C1\CCC[C@]2(C)[C@@H]([C@H](C)/C=C/[C@H](C)C(C)C)CC[C@@H]12` [Vitamin D2] here?
Its Difference is −0.62.

And the Cholesterol-free [1, 14]?
The Cholesterol-free was 1.409.

And the Complete [1, 15]?
The Complete was 0.7927.

And the “Cholesterol-free media + simvastatin (0.04 μM)” value [2, 5]?
Its value is 1.05.

What about the “Complete Media” value [2, 6] of the same compound?
Its value is 0.9687.

What about the Difference [2, 7] of the same compound?
Its Difference is −0.08.

Which Cholesterol-free [1] does the source give for `NC1=NCC2c3ccccc3Cc3ccccc3N12` (centres unmarked) [Epinastine (hydrochloride)] here?
Its Cholesterol-free is 1.415.

And the Complete [1]?
Its Complete is 0.8806.

What about the Difference [1] of the same compound?
Its Difference is −0.53.

And the “Cholesterol-free media + simvastatin (0.04 μM)” value [2]?
The value was 1.515.

And the “Complete Media” value [2]?
The value was 1.132.

And the Difference [2]?
Its Difference is −0.38.

`Cc1cn([C@H]2C=C[C@@H](CO)O2)c(=O)[nH]c1=O` [Stavudine] was tested. Which Difference [1, 9] did it give?
The Difference was −0.09.

What about the Cholesterol-free [1, 10] of the same compound?
The Cholesterol-free was 0.9921.

And the Complete [1, 6]?
Its Complete is 0.8994.

What about the “Cholesterol-free media + simvastatin (0.04 μM)” value [2, 16] of the same compound?
Its value is 1.022.

What about the “Complete Media” value [2, 17] of the same compound?
Its value is 0.8293.

What about the Difference [2, 7] of the same compound?
Its Difference is −0.19.

Which Difference [1, 3] does the source give for `CC(C)(O)CNc1nc(Nc2ccnc(C(F)(F)F)c2)nc(-c2cccc(C(F)(F)F)n2)n1` [Enasidenib] here?
Its Difference is −0.30.

What about the Cholesterol-free [1, 4] of the same compound?
Its Cholesterol-free is 1.312.

And the Complete ([1]; NCI-H292 cells, complete media)?
The Complete was 1.013.

What about the “Cholesterol-free media + simvastatin (0.04 μM)” value [2, 11] of the same compound?
Its value is 0.8158.

And the “Complete Media” value [2, 12]?
The value was 0.8552.

And the Difference [2, 13]?
The Difference was 0.04.

What does the source list for `NC(=O)N1c2ccccc2C[C@H](O)c2ccccc21` [Eslicarbazepine]?
Difference [1, 3]: −0.02; Cholesterol-free ([1]; NCI-H292 cells, cholesterol-free media without statin, FDA drug library screen): 0.8833; Complete ([1]; NCI-H292 cells, complete media, FDA drug library screen): 0.8587; Cholesterol-free media + simvastatin (0.04 μM) [2, 16]: 1.137; Complete Media [2, 17]: 0.9164; Difference [2, 7]: −0.22

Which Difference [1, 9] does the source give for `N#Cc1ccc2c(c1)N(CCCN1CCC(O)CC1)c1ccccc1S2` [Pericyazine] here?
The Difference was −0.09.

What about the Cholesterol-free [1, 10] of the same compound?
Its Cholesterol-free is 0.9265.

What about the Complete [1, 6] of the same compound?
Its Complete is 0.8353.

What about the “Cholesterol-free media + simvastatin (0.04 μM)” value [2, 18] of the same compound?
Its value is 1.378.

And the “Complete Media” value [2, 19]?
The value was 1.353.

What about the Difference [2, 20] of the same compound?
The Difference was −0.02.

Which results are given for `COC(=O)C1=C(C#N)NC(C)=C(C(=O)OC(C)C)C1c1cccc([N+](=O)[O-])c1` (centres unmarked) [Nilvadipine]?
Difference [1, 3]: −0.27; Cholesterol-free [1, 4]: 1.059; Complete ([1]; NCI-H292 cells, complete media): 0.7875; Cholesterol-free media + simvastatin (0.04 μM) [2, 16]: 1.579; Complete Media [2, 17]: 1.393; Difference [2, 7]: −0.19

Which results are given for `Nc1c(Br)cc(Br)cc1CN[C@H]1CC[C@H](O)CC1` [Ambroxol (hydrochloride)]?
Cholesterol-free [1, 4]: 1.285; Complete ([1]; NCI-H292 cells, complete media): 0.8347; Difference ([1]; complete vs cholesterol-free media, greater than 0 enhanced anti-cancer activity, about 0 neutral, below 0 antagonists): −0.45; Cholesterol-free media + simvastatin (0.04 μM) [2, 18]: 1.005; Complete Media [2, 19]: 0.9822; Difference [2, 20]: −0.02

`O=C([O-])[C@H](O)[C@@H](O)[C@H](O)[C@H](O)CO.[Na+]` [Gluconate (sodium)] was tested. Which Difference [1, 8] did it give?
The Difference was −0.62.

What about the Cholesterol-free [1, 14] of the same compound?
Its Cholesterol-free is 1.575.

What about the Complete [1, 15] of the same compound?
The Complete was 0.95.

And the “Cholesterol-free media + simvastatin (0.04 μM)” value ([2]; NCI-H292 cells, FDA library drug in cholesterol-free media with simvastatin 0.04 μM)?
Its value is 1.406.

What about the “Complete Media” value ([2]; NCI-H292 cells, FDA library drug in complete media) of the same compound?
Its value is 0.9873.

And the Difference ([2]; complete media vs cholesterol-free media + simvastatin (0.04 μM), […])?
Its Difference is −0.42.
